Data taken from PubChem BioAssay (NCI).
Several values for one entry are separate records, joined by “and”; a condition that tells them apart may be missing. Equal values may be shown once.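 A five-concentration, 48-hour dose response in 96-well plates underlies each endpoint, interpolated linearly between surrounding concentrations. GI50: concentration for 50% inhibition of growth. TGI marks complete inhibition of growth.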

Assays:
Experiment in all cases: NCI-60 cell line screen, 48 h
[1] = system: K-562 leukemia
[2] = system: EKVX NSCLC
[3] = system: UACC-257 melanoma
[4] = system: SF-268 CNS
[5] = system: OVCAR-4 ovarian
[6] = system: RXF 393 renal
[7] = system: HL-60(TB) leukemia
[8] = system: COLO 205 colon
[9] = system: SK-MEL-5 melanoma
[10] = system: MDA-MB-435

Structure (SMILES) | TGI [1] | TGI [2] [µM] | TGI [3] | TGI [4] [µM] | TGI [5] | TGI [6] [µM] | TGI [7] | TGI [8] | TGI [9] [µM] | GI50 [1] | GI50 [3] | GI50 [4] | GI50 [5] [µM] | GI50 [10] [µM] | TGI [10] [µM] | GI50 [6] [µM] | GI50 [8] | GI50 [2] | GI50 [9] | GI50 [7]
CC(C)(C)OP(=O)(OC(C)(C)C)C(O)c1ccc(/C=C(\C#N)C(N)=O)cc1 (stereo not given) | > 100 µM | > 100 | > 100 µM | > 100 | > 100 µM | > 100 | > 100 µM | > 100 µM |  |  |  |  |  |  |  |  |  |  |  | 
S=c1o[nH]c(-c2ccccc2)c1C=Nc1ccccc1 | > 100 µM | > 100 | > 100 µM | > 100 | > 100 µM | > 100 | > 100 µM | > 100 µM | > 100 |  |  |  |  |  |  |  |  |  |  | 
COC(=O)c1cccc2c3ccccc3c3ccccc3c12 | 79.3 µM | > 100 | > 100 µM | > 100 | > 100 µM | 71.3 | 58.1 µM | 31.7 µM | > 100 |  |  |  |  |  |  |  |  |  |  | 
CCCCCCCCOCC(O)CO (stereo not given) | > 100 µM | > 100 | > 100 µM | > 100 | > 100 µM | > 100 | > 100 µM | > 100 µM | > 100 |  |  |  |  |  |  |  |  |  |  | 
CC1=CC(C)(c2c[nH]c3ccccc23)CC(C)(C)c2c1[nH]c1ccccc21 (stereo not given) | 53.9 µM | 39.8 | 41.2 µM | > 100 | 27.7 µM | 26.6 |  |  |  |  |  |  |  |  |  |  |  |  |  | 
CC1(C)CCCC2(C)C3C(O)CC2(C)C(O)C31 (stereo not given) | > 100 µM | > 100 | > 100 µM | > 100 | > 100 µM | > 100 |  | > 100 µM | > 100 |  |  |  |  |  |  |  |  |  |  | 
N#Cc1c(-c2ccccc2)cc(-c2ccc(N)cc2)[nH]c1=O | > 100 µM | > 100 | > 100 µM | > 100 | > 100 µM | > 100 | > 100 µM | > 100 µM | > 100 |  |  |  |  |  |  |  |  |  |  | 
Cc1ccccc1NC(=O)/C=N/O | > 100 µM | 39.6 | > 100 µM | > 100 | > 100 µM | > 100 | 48.5 µM | > 100 µM | > 100 |  |  |  |  |  |  |  |  |  |  | 
Cc1ccc(S(=O)(=O)N/N=C(\c2nc3ccc([N+](=O)[O-])cc3[nH]c2=O)C(O)c2ccc([N+](=O)[O-])cc2)cc1 (stereo not given) | > 100 µM | > 100 | > 100 µM | > 100 | > 100 µM | > 100 | 95.6 µM | > 100 µM | > 100 |  |  |  |  |  |  |  |  |  |  | 
Nc1ccc(-c2cc(C(=O)Nc3nccs3)[nH]c(=S)n2)cc1 | > 100 µM | > 100 | > 100 µM | > 100 | > 100 µM | > 100 |  | > 100 µM | > 100 |  |  |  |  |  |  |  |  |  |  | 
O=C1C(=C2CCCC2)CCC1CN1CCCCC1 (stereo not given) | 47.1 µM | 35.4 | 34.8 µM | 37.5 | 30.3 µM | 30 | 21.9 µM | 73.5 µM | 34.1 |  |  |  |  |  |  |  |  |  |  | 
CCCCC(C)/C=C/C(=O)C1=C(O)/C(=C/C(=O)O)OC1=O (stereo not given) | > 100 µM | > 100 | > 100 µM |  | > 100 µM |  | > 100 µM | > 100 µM | > 100 |  |  |  |  |  |  |  |  |  |  | 
O=C1CC(c2c(-c3ccccc3)[nH]c3ccccc23)C(=O)N1c1ccccc1 (stereo not given) | > 100 µM | > 100 | > 100 µM |  | > 100 µM | > 100 | > 100 µM |  | > 100 |  |  |  |  |  |  |  |  |  |  | 
Nc1nonc1-c1nc2ccccc2n1Cc1ccc(F)cc1 | > 100 µM |  | > 100 µM | > 100 | > 100 µM | > 100 |  | > 100 µM |  | 4.37 µM | > 100 µM | 9.61 µM | > 100 | 1.87 | 5.89 | 4.42 | 5.02 µM |  |  | 
Nc1c(C(=O)Nc2ccccn2)sc2nc3c(cc12)C(O)CCC3 (stereo not given) | > 50 µM | > 50 | > 50 µM | > 50 | > 50 µM | > 50 | > 50 µM | > 50 µM | > 50 | 0.319 µM | > 50 µM | 2.94 µM | > 50 |  |  | 1.69 | 2.51 µM | 3.29 µM | 1.47 µM | 0.562 µM
Cc1ccc(S(=O)(=O)NC(=O)NCCc2ccccc2)cc1 | > 100 µM | > 100 | 88.2 µM | > 100 | > 100 µM | > 100 | > 100 µM | > 100 µM | > 100 |  |  |  |  |  |  |  |  |  |  | 
C[C@H]1C/C=C/[C@H]2[C@@H]3O[C@]3(C)[C@@H](C)[C@H]3[C@H](Cc4ccccc4)NC(=O)[C@]32OC(=O)O/C=C/[C@@](C)(O)C1=O | 91.2 µM and 125 µM and > 250 µM |  | 29.9 µM and 24.1 µM and 49.8 µM |  | > 79.2 µM and 46.3 µM and > 250 µM |  | 11.3 µM and 2.95 µM and 4.97 µM | 49.2 µM and 98.6 µM and 70.8 µM |  | 0.0125 µM and 0.025 µM | 0.127 µM and 0.0594 µM | 0.0125 µM and 0.025 µM | 0.396 |  |  | 0.0125 | 0.0194 µM and 0.0125 µM and 0.025 µM | 0.065 µM and 0.121 µM | 0.0539 µM and 0.0351 µM | 0.153 µM and 0.0973 µM

Structure (SMILES) | TGI [1] | TGI [2] [µM] | TGI [3] | TGI [4] [µM] | TGI [5] | TGI [6] [µM] | TGI [7] | TGI [8] | TGI [9] [µM] | GI50 [1] | GI50 [3] | GI50 [4] | GI50 [5] [µM] | GI50 [10] [µM] | TGI [10] [µM] | GI50 [6] [µM] | GI50 [8] | GI50 [2] | GI50 [9] | GI50 [7]
O=c1c2ccccc2[nH]c2c(O)ccc(O)c12 | 56.3 µM | > 62.1 | 34.6 µM | 76.5 | 18.5 µM | 25.8 | 10.2 µM |  |  |  |  |  |  |  |  |  |  |  |  | 
CCOC(=O)C1C=C2O[C@@H]3OC4(CCCCC4)O[C@@H]3C2C2C(=O)CCC(=O)[C@@]12C(=O)OC (stereo not given in full) | > 100 µM | > 100 | > 100 µM | > 100 | > 100 µM |  | > 100 µM | > 100 µM | > 100 |  |  |  |  |  |  |  |  |  |  | 
Cc1cccc(C)c1NC(=O)CCC/C(CC(=O)c1ccc(F)cc1)=N\NC(=O)C(=O)NN | > 100 µM | > 100 | > 100 µM | > 100 | > 100 µM | > 100 | > 100 µM | > 100 µM | > 100 |  |  |  |  |  |  |  |  |  |  | 
O=[P+](O)c1ccccn1 | > 100 µM | > 100 | > 100 µM | > 100 | > 100 µM | > 100 | > 100 µM | > 100 µM | > 100 |  |  |  |  |  |  |  |  |  |  | 
C1OC1CN1CCN(CC2CO2)CC1 (stereo not given) | > 100 µM | > 100 | > 100 µM | > 100 | > 100 µM | > 100 | > 88.7 µM | > 100 µM | > 100 |  |  |  |  |  |  |  |  |  |  | 
Cc1coc2c1C(=O)C(=O)c1ccccc1-2 | 1.44 µM |  | 0.542 µM |  | 3.22 µM | 3.12 |  |  | 1.92 |  |  |  |  |  |  |  |  |  |  | 
O=S(=O)(NCCNc1nccc(-c2c(-c3ccc(F)c(O)c3)nc3sccn23)n1)c1ccc(Cl)cc1 |  | > 50 | > 50 µM | 13.4 | > 50 µM | 4.7 |  |  |  |  | 2.53 µM | 1.8 µM | 2.79 |  |  | 0.651 |  | 2.19 µM |  | 
Cn1c(=O)nc2n(-c3ccc(Cl)cc3)c(-c3ccccc3)c(-c3ccccc3)nc-2c1=O | > 100 µM | > 100 | 66.9 µM | > 100 | > 100 µM |  | 58.6 µM | > 100 µM | 53.5 |  |  |  |  |  |  |  |  |  |  | 
Cc1cc(N(CCC#N)CCC#N)ccc1N=Nc1cc(Cl)ccc1Cl | 11.4 µM | 26.5 | 23.8 µM | 29.9 | 10.3 µM | 23 | 16 µM | 4.97 µM | 30.3 |  |  |  |  |  |  |  |  |  |  | 
CN(C)CCC(/C=C/c1ccccc1)=N\Nc1ccc(Cl)c(Cl)c1 | 6.03 µM | 13.1 | 9.77 µM | 8.81 | 10.8 µM | 9.05 | 7.31 µM | 7.23 µM | 8.96 |  |  |  |  |  |  |  |  |  |  | 
CCC/C=C\C=C\C1(NS(=O)(=O)c2ccc(C)cc2)CCC(C(C)(C)C)CC1 (stereo not given) | 34.2 µM | 62.6 | 39 µM | 40 | 49.4 µM | 32.3 | 23.2 µM | 28.1 µM | 33.3 |  |  |  |  |  |  |  |  |  |  | 
C/C(=N\NC(N)=S)c1ccc(C)c(C)c1 | > 100 µM | > 100 | > 100 µM | > 100 | > 100 µM | 86.4 | 75.4 µM | > 100 µM | > 100 |  |  |  |  |  |  |  |  |  |  | 
Cc1cccc(C)c1NC(=O)CCc1nnc2s/c(=C\c3ccc(N(C)C)cc3)c(=O)n12 | > 100 µM |  | > 100 µM | > 100 | > 100 µM | > 100 | > 100 µM | > 100 µM | > 100 |  |  |  |  |  |  |  |  |  |  | 
O=C1/C(=C/c2ccc3c(c2)OCCO3)CCC/C1=C\c1ccc2c(c1)OCCO2 |  | > 100 | 59.7 µM | > 100 | 61 µM | 53.5 | 56.9 µM | 46.8 µM | 80 |  |  |  |  |  |  |  |  |  |  | 
O=c1c2cc(Br)cc(Br)c2nc(CCCl)n1-c1ccc(O)c([N+](=O)[O-])c1 | 61.9 µM | 75.8 | 29.4 µM | 37.9 | 29 µM |  | 42.9 µM | 36.3 µM | 35.6 |  |  |  |  |  |  |  |  |  |  | 
COc1ccc(C(C)c2cc(OC)c(OC)c(OC)c2)cc1 (stereo not given) | > 50 µM | > 50 | > 50 µM | > 50 | > 50 µM | > 50 | 0.374 µM | 0.325 µM | 12.8 | 0.0261 µM | 32.3 µM | 0.621 µM | 2.97 |  |  | 0.126 | 0.109 µM | 0.373 µM | 0.13 µM | 0.0979 µM
CCc1cccc(C(C)C)c1NC(=O)CCl | > 100 µM | > 100 | > 100 µM | > 100 |  |  | 70.8 µM |  |  |  |  |  |  |  |  |  |  |  |  | 
